# Reference: paper PMC8682774 (2021)
# What was measured:
# [1] = test system: cKit2 (DNA, G4) GGGCGGGCGCGAGGGAGGGG; test: G4-FID; conditions: 100 mM KCl, 10 mM lithium cacodylate pH 7.3, thiazole orange 0.5 µM displaced
# [2] = test system: 21CTA (DNA, G4) GGGCTAGGGCTAGGGCTAGGG; test: G4-FID; conditions: 100 mM KCl, 10 mM lithium cacodylate pH 7.3, thiazole orange 0.5 µM displaced
# [3] = test system: c-Myc22 (G14T-G23T) (DNA, G4) TGAGGGTGGGTAGGGTGGGTAA; test: G4-FID; conditions: 100 mM KCl, 10 mM lithium cacodylate pH 7.3, thiazole orange 0.5 µM displaced
# [4] = test system: NRAS (RNA, G4) GGGAGGGGCGGGUCUGGG; test: G4-FID; conditions: 100 mM KCl, 10 mM lithium cacodylate pH 7.3, thiazole orange 0.5 µM displaced
# [5] = test system: CEB25wt (DNA, G4) AAGGGTGGGTGTAAGTGTGGGTGGGT; test: G4-FID; conditions: 100 mM KCl, 10 mM lithium cacodylate pH 7.3, thiazole orange 0.5 µM displaced
# [6] = test system: CEB25L111T (DNA, G4) AAGGGTGGGTGGGTGGGT; test: G4-FID; conditions: 100 mM KCl, 10 mM lithium cacodylate pH 7.3, thiazole orange 0.5 µM displaced
# [7] = test system: TERRA (RNA, G4) AGGGUUAGGGUUAGGGUUAGGG; test: G4-FID; conditions: 100 mM KCl, 10 mM lithium cacodylate pH 7.3, thiazole orange 0.5 µM displaced
# [8] = test system: 22AG (DNA, G4) AGGGTTAGGGTTAGGGTTAGGG; test: G4-FID; conditions: 100 mM KCl, 10 mM lithium cacodylate pH 7.3, thiazole orange 0.5 µM displaced
# [9] = test system: Biot-hTelo (DNA, G4) GGTTAGGGTTAGGGTTAGGGTTAGGGTTAGG; test: adapted ELISA, anti-BrdU antibody; conditions: 100 mM KCl; 10 mM Tris-HCl pH 7.4; 250 nM ligand, oligonucleotide varied; apparent
# [10] = test system: Biot-cMyc (DNA, G4) TGAGGGTGGGTAGGGTGGGTAA; test: adapted ELISA, anti-BrdU antibody; conditions: 100 mM KCl; 10 mM Tris-HCl pH 7.4; 250 nM ligand, oligonucleotide varied; apparent
# [11] = test system: Biot-TERRA (RNA, G4) UUAGGGUUAGGGUUAGGGUUAGGG; test: adapted ELISA, anti-BrdU antibody; conditions: 100 mM KCl; 10 mM Tris-HCl pH 7.4; 250 nM ligand, oligonucleotide varied; apparent
# [12] = test system: F21T (DNA, G4) GGGTTAGGGTTAGGGTTAGGG; test: FRET melting; conditions: 10 mM KCl, 90 mM LiCl; 10 mM lithium cacodylate pH 7.2; 0.2 µM G4; 1 µM ligand; no competitor
DC50 ([1]; 0.25 µM DNA) [nM],DC50 ([2]; 0.25 µM DNA) [nM],DC50 ([3]; 0.25 µM DNA) [nM],"DC50 ([4]; 0.25 µM RNA, decimal comma)",DC50 ([5]; 0.25 µM DNA) [nM],DC50 ([6]; 0.25 µM DNA) [nM],"DC50 ([7]; 0.25 µM RNA, decimal comma)",DC50 ([8]; 0.25 µM DNA) [nM],DC50 ([1]; 0.25 µM G4) [nM],DC50 ([2]; 0.25 µM G4) [nM],DC50 ([3]; 0.25 µM G4) [nM],DC50 ([4]; 0.25 µM G4) [µM],DC50 ([5]; 0.25 µM G4) [nM],Kd [9] [nM],Kd [10] [nM],DC50 ([6]; 0.25 µM G4) [nM],Kd [11] [nM],DC50 ([7]; 0.25 µM G4) [µM],DC50 ([8]; 0.25 µM G4) [nM],binding [12],SMILES
180,180,150,"0,20 µM",290,260,"0,25 µM",340,–,–,–,–,–,–,–,–,–,–,–,–,C[n+]1cc(NC(=O)c2cccc(C(=O)Nc3cc4ccccc4[n+](C)c3)n2)cc2ccccc21
–,–,–,–,–,–,–,–,380,1100,520,0.32,760,9.6 ± 1.3,3.5 ± 0.9,480,29.6 ± 7.8,0.42,800,–,C[n+]1cc(NC(=O)c2cc(NCCCCNC(=O)CCCc3cn(CO[C@H]4C[C@H](n5cc(Br)c(=O)[nH]c5=O)O[C@@H]4CO)nn3)cc(C(=O)Nc3cc4ccccc4[n+](C)c3)n2)cc2ccccc21
–,–,–,–,–,–,–,–,200,300,310,0.21,400,–,–,230,–,0.31,370,yes,C#CCCCC(=O)NCCCCNc1cc(C(=O)Nc2cc3ccccc3[n+](C)c2)nc(C(=O)Nc2cc3ccccc3[n+](C)c2)c1
